The results in this text go back to patent publication US8993716B2, “Peptides used in the treatment and/or care of the skin, mucous membranes and/or hair and its use in cosmetic or pharmaceutical compositions” (Lipotec, S.A., priority 2009, dated 2015).

One data set concerns Hsp70. Put plainly: Hsp70 synthesis stimulation assay (competitive ELISA). The settings on record: human keratinocyte cell line, normalized to average basal values. Format: cell-based. The method, then: Hsp70 synthesis stimulation was assessed in a human keratinocyte cell line in the presence of the peptides of the invention. The cells were seeded (10^6 cells/6-well plate) and incubated for 24 hours in DMEM, after which the peptides were added to 200 μM in culture medium and were incubated for another 16-24 hours. The proteasome inhibitor MG-132 at 10 μM was used as a positive control and vehicle (culture medium) as a negative control. After the incubation period, the cells were washed with PBS, lysed and centrifuged at 12,000 rpm at 4° C. for 10 min. The supernatants were collected, and the Hsp70 levels were determined by carrying out a competitive ELISA assay following the protocols of the commercial kit (DuoSet IC human/mouse total HSP70 ELISA kit, R&D Systems Inc.)
Hsp70 levels were normalized with regards to the average basal values.

A further data set concerns human keratinocytes. Format: cell-based. The settings on record: 2 h, 0.1 mM. The procedure: The human keratinocytes were maintained in culture for 24 hours in 96-well plates for monolayer formation and the cells were pre-incubated in darkness with 0.1 mM of Ac-L-His-L-Pro-L-Leu-L-Arg-OH, Ac-L-His-L-Leu-L-Leu-L-Arg-OH in culture medium or with vehicle (culture medium) for 2 hours at 37° C. Subsequently the cells were radiated with UVB at an energy of 800 J/m^2. A control plate with vehicle was maintained in the dark without radiation for the same time at room temperature. After the irradiation period the cells' medium was replaced by a fresh medium and the cells were incubated for additional 24 hours. Cell viability was determined by the MTT method, adding 5 mg/mL of the MTT solution to each well and incubating the plate for 4 hours at 37° C., after which time the medium was removed, 100μL of DMSO was added and the plate was stirred at room temperature for 15 min. The optical density of each well was measured at 570 nm in a spectrophotometer.

SMILES strings stand for the structures. Peptide text beside a SMILES is read from it. * marks the point of attachment. Cbz = O=C(OCc1ccccc1)*

Take `CC(=O)N[C@@H](Cc1c[nH]cn1)C(=O)N[C@@H](CC(C)C)C(=O)N[C@@H](CC(C)C)C(=O)N[C@@H](CCCNC(=N)N)C(=O)O` [Ac-L-His-L-Leu-L-Leu-L-Arg-OH] (Ac-HLLR-OH): the Hsp70 increase with Hsp70 (peptide 200 μM, 16-24 hours) turned out to be 28%. Besides, the “CELL VIABILITY” value in the data set with human keratinocytes worked out at 87.7%.
On to `CC(=O)N[C@@H](Cc1c[nH]cn1)C(=O)N1CCC[C@H]1C(=O)N[C@@H](CC(C)C)C(=O)N[C@@H](CCCNC(=N)N)C(=O)O` [Ac-L-His-L-Pro-L-Leu-L-Arg-OH] (Ac-HPLR-OH), for which the Hsp70 increase in the data set with Hsp70 (peptide 200 μM, 16-24 hours) is reported as 42%. The “CELL VIABILITY” value with human keratinocytes is given as 97.2%.
In turn, `CC(C)C[C@@H](C=O)NC(=O)[C@H](CC(C)C)NC(=O)[C@H](CC(C)C)NC(=O)OCc1ccccc1` [MG-132, reference compound] (Cbz-Leu-Leu-Leu-aldehyde) had a Hsp70 increase with Hsp70 (positive control MG-132 at 10 μM) of 294%.
